# Experimental data: patent publication US20150118229A1, “JAK1 SELECTIVE INHIBITOR AND USES THEREOF” (ABBVIE INC., priority 2013, published 2015)
# How the values were obtained:
# [1] = Human PK, multiple ascending dose Study M13-845 Substudy 1; assay type: in vivo; details: for AUC: human, in vivo, oral
# [2] = Human PK, single ascending dose Study M13-401; assay type: in vivo; details: for AUC(0-t) / AUC(0-inf): human, in vivo
# [3] = test system: peripheral NK cell counts; test: Peripheral NK cell counts in healthy rats; assay type: in vivo, rat
# Text: The correlation of this effect with ex vivo cytokine signaling inhibition is shown in the right panel of FIG. 6. These measurements correlated well, confirming the Jak dependency of the NK cell count endpoint.
# To establish the relationship between changes in NK cell counts and nonclinical efficacy, the changes in NK cell counts were compared with decreases in rat AIA disease activity per unit exposure.
# [4] = Non-GLP 4-week oral screening toxicity study in dogs; assay type: in vivo, beagle dogs; details: dog, 4 weeks
# [5] = Plasma protein binding, human; assay type: in vitro ADME
# CYP3A5 = CYP3A5 (Homo sapiens, UniProt P20815); test: Metabolism by recombinant CYP3A5; assay type: in vitro ADME
# Sequence of CYP3A5 (P20815 whole entry): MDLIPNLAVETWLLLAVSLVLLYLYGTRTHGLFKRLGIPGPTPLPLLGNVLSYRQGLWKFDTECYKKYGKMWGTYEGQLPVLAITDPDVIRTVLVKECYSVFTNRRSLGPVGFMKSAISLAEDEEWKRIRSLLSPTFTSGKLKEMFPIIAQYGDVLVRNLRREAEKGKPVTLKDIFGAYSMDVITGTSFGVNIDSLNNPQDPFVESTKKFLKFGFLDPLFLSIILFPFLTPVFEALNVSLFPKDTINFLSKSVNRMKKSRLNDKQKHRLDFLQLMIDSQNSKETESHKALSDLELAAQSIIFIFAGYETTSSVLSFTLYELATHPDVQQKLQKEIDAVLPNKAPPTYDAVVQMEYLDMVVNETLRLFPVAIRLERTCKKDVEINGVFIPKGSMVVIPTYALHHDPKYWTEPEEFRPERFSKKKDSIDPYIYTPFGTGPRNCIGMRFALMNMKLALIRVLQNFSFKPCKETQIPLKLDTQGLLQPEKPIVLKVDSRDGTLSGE
# Text: In vitro biotransformation of Compound 1 primarily occurred at imidazolpyrrolopyrazinyl ethyl pyrrolidine moiety.
# MATEK = MATEK (Homo sapiens, UniProt Q86VL8); test: Transporter inhibition, MATEK
# Sequence of MATEK (Q86VL8 1-566 isoform Q86VL8-3): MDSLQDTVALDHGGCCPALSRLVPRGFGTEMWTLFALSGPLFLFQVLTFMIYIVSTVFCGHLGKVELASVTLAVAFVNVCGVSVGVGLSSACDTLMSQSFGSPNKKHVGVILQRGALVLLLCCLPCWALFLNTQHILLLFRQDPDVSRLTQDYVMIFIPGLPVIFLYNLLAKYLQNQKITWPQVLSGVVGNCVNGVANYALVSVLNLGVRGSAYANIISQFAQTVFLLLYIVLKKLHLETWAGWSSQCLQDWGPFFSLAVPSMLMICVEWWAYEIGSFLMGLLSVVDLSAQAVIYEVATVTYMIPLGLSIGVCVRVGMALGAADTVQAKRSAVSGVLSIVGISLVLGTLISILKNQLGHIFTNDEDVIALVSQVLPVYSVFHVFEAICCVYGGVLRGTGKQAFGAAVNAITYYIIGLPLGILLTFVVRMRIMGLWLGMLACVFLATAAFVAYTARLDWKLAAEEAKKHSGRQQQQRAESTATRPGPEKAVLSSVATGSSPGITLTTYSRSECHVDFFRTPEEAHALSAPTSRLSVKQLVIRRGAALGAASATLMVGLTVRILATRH
# in vivo = details: dog; for AUC(0-inf): AUC0-∞
# [6] = 24 mg BID, Day 14, mean (% CV), Western subjects, listed as Comp. 1
# [7] = both, beagle, po, 0.5 mg/kg/day
structure (smiles),measurement,setting,value
"CC[C@@H]1CN(C(=O)NCC(F)(F)F)C[C@@H]1c1cnc2cnc3[nH]ccc3n12 [Compound 1, (3S,4R)-3-ethyl-4-(3H-imidazo[1,2-a]pyrrolo[2,3-e]pyrazin-8-yl)-N-(2,2,2-trifluoroethyl)pyrrolidine-1-carboxamide]","Fe %, unchanged drug recovered in urine","[1]; 24 mg BID, Day 14",18.7%
same,AUC12/dose,[1]; [6],22.0 ng·h/mL/mg
same,Cmax/dose,[1]; [6],4.95 ng/mL/mg
same,AUC,"[1]; 3 mg, 3 mg BID, Day 1, mean, read-out: AUC12",75.3 ng·h/mL
same,AUC,"[1]; 3 mg, 3 mg BID, Day 14, mean, read-out: AUC12",78.3 ng·h/mL
same,AUC,"[1]; 6 mg, 6 mg BID, Day 14, mean, read-out: AUC12",138 ng·h/mL
same,AUC,"[1]; 6 mg, AUC12, 6 mg BID, Day 1, mean, heading: AUC12",134 ng·h/mL
same,AUC,"[1]; 12 mg, 12 mg BID, Day 1, mean, read-out: AUC12",270 ng·h/mL
same,AUC,"[1]; 12 mg, 12 mg BID, Day 14, mean, read-out: AUC12",271 ng·h/mL
same,AUC,"[1]; 24 mg, 24 mg BID, Day 1, mean, read-out: AUC12",540 ng·h/mL
same,AUC,"[1]; 24 mg, 24 mg BID, Day 14, mean, read-out: AUC12",529 ng·h/mL
same,decrease in AUC in the presence of food,"[2]; Substudy 2, 3 mg single dose",< 1%
same,AUC(0-t),"[2]; oral, 3 mg",102 ng·h/mL
same,AUC(0-t),"[2]; oral, 6 mg",159 ng·h/mL
same,AUC(0-t),"[2]; oral, 24 mg",612 ng·h/mL
same,AUC(0-inf),"[2]; single oral 1 mg, mean ± SD",30.1 ± 5.72 ng·h/mL
same,AUC(0-t),"[2]; single oral 1 mg, mean ± SD",29.8 ± 5.78 ng·h/mL
same,AUC(0-t),"[2]; single oral 3 mg, mean ± SD",102 ± 27.5 ng·h/mL
same,AUC(0-t),"[2]; single oral 6 mg, mean ± SD",159 ± 37.5 ng·h/mL
same,AUC(0-t),"[2]; single oral 12 mg, mean ± SD",329 ± 48.9 ng·h/mL
same,AUC(0-t),"[2]; single oral 24 mg, mean ± SD",612 ± 78.6 ng·h/mL
same,AUC(0-t),"[2]; single oral 36 mg, mean ± SD",909 ± 201 ng·h/mL
same,AUC(0-inf),"[2]; single oral 48 mg, mean ± SD",1040 ± 174 ng·h/mL
same,AUC(0-t),"[2]; single oral 48 mg, mean ± SD",1030 ± 174 ng·h/mL
same,"fe, dose recovered unchanged in urine","[2]; single oral 1 mg, mean ± SD",17.7 ± 9.58%
same,"fe, dose recovered unchanged in urine","[2]; single oral 3 mg, mean ± SD",15.6 ± 4.44%
same,"fe, dose recovered unchanged in urine","[2]; single oral 6 mg, mean ± SD",15.6 ± 3.49%
same,"fe, dose recovered unchanged in urine","[2]; single oral 12 mg, mean ± SD",19.9 ± 2.26%
same,"fe, dose recovered unchanged in urine","[2]; single oral 24 mg, mean ± SD",18.6 ± 3.08%
same,"fe, dose recovered unchanged in urine","[2]; single oral 36 mg, mean ± SD",20.8 ± 9.25%
same,"fe, dose recovered unchanged in urine","[2]; single oral 48 mg, mean ± SD",16.4 ± 5.48%
same,effects on peripheral NK cell counts,"[3]; over the efficacious exposure range, rat",less than that of Tofacitinib
same,predicted maximum decrease of NK cell counts,"[3]; over the intended clinical exposure range, on the basis of rat models",approximately 40%
same,NK Counts (exposure),[3]; rat,290 ng·h/mL
same,NK cell count decrease at about 60% efficacy (inhibition of paw swelling),[3]; rat,~25%
same,NOAEL,[4]; 5 mg/kg/day,None
same,Adverse Findings,[4]; leading number = dose mg/kg/day,5: Popliteal lymph
same,fraction unbound,[5],0.53
same,percentage of parent remaining,CYP3A5,80.6%
same,IC50,MATEK,> 15 µM
same,AUC,in vivo; [7],359 ng·h/mL
same,AUC at 28 days,in vivo; [7],339 ng·h/mL
same,AUC,"in vivo; both, beagle, po, 3 mg/kg/day",2200 ng·h/mL
same,AUC at 28 days,"in vivo; both, beagle, po, 3 mg/kg/day",2140 ng·h/mL
same,Cmax,"in vivo; both, beagle, po, 3 mg/kg/day",617 ng/mL
same,AUC,"in vivo; both, beagle, po, 5 mg/kg/day",4430 ng·h/mL
same,AUC at 28 days,"in vivo; both, beagle, po, 5 mg/kg/day",4100 ng·h/mL
same,Cmax,"in vivo; both, beagle, po, 5 mg/kg/day",1240 ng/mL
same,Vd,"in vivo; iv, 1 mg/kg",2.6 L/kg
same,clearance,"in vivo; iv, 1 mg/kg",11 mL/min/kg
same,half-life,"in vivo; iv, 1 mg/kg",186 min
same,AUC(0-inf),"in vivo; iv, 1 mg/kg",1610 ng·h/mL
same,half-life,"in vivo; po, 1 mg/kg",168 min
same,AUC(0-inf),"in vivo; po, 1 mg/kg",1240 ng·h/mL
same,Cmax,"in vivo; po, 1 mg/kg",349 ng/mL
same,AUC(0-inf),"in vivo; po, 5 mg/kg",5310 ng·h/mL
